For one data set, the system named is human PBMC. Briefly: Human PBMC IL-12 p40 secretion, ELISA. In kind it is cell-based. The conditions noted are these: for IL-12 p40 response of human PBMC (in words): Example 1, FIG. 1, 16 hours, RNA 50 μg/ml with and without DOTAP, R-848 2 μg/ml, LPS 1 μg/ml, Pam3Cys 5 μg/ml, poly IC 50 μg/ml; for effect of DOTAP on the amount of IL-12 p40 secreted: Example 4, FIG. 5, presence versus absence of DOTAP, 16 hour incubation. As for the experimental part:
Human peripheral blood mononuclear cells (PBMCs) were isolated from healthy donors, plated at 3×10^5 cells/well, stimulated in vitro with various test and control immunostimulatory agents for 16 hours, and then analyzed by enzyme-linked immunosorbent assay (ELISA) using matched antibody pairs from BD-Pharmingen for secreted cytokines IL-12 p40 and TNF-α, performed according to the manufacturer's protocol. Also included were certain negative controls, including medium alone and DOTAP (10 μg/200 μl culture well; “Liposomes”) alone. The control immunostimulatory agents included the imidazoquinolone R-848 (2 μg/ml), lipopolysaccharide (LPS; 1 μg/ml), Pam3Cys (5 μg/ml), poly IC (50 μg/ml), and CpG DNA (50 μg/ml). These are reported ligands for TLR7, TLR4, TLR2, TLR3, and TLR9, respectively. Test immunostimulatory agents included the following RNA molecules, each at 50 μg/ml, with and without DOTAP (10 μg total “with Liposomes” and “without Liposomes”, respectively): GUGUUUAC alone; GUAGGCAC alone; GUGUUUAC in combination with GUAGGCAC; GUAGGA; GAAGGCAC; CUAGGCAC; CUCGGCAC; and CCCCCCCC. These RNA oligonucleotides each contained a phosphorothioate linkage between the penultimate and 3′ terminal nucleoside.
The experiments described in the preceding example were repeated with varied concentrations of RNA oligonucleotides in order to assess the dose-response behavior of human PBMCs to G,U-containing RNA oligonucleotides of the invention. A total of 10, 3 or 1 μg RNA was added to 10 μg DOTAP and then added to the 200 μl culture wells. After 16 hours IL-12 p40 and TNF-α ELISAs were performed as described in Example 1. […]
RNA oligomers GUGUGUGU, GUGUGUG, GUGUGU, GUGUG, GUGU, GUG, and GU, with and without DOTAP, were added over a range of concentrations to overnight cultures of human PBMC. Culture supernatants were harvested, and human TNF-α, IL-12 p40, and IFN-α were measured by ELISA using matched antibody pairs from BD-Pharmingen according to the manufacturer's protocol. […]
For orientation: In an ELISA, binding on a coated surface is turned into a signal by an enzyme label.

Data set [1] relates to wild type murine macrophages. The data set is described as follows: Wild type murine macrophages in the presence of IFN-γ, IL-12 p40 ELISA. Format: cell-based, mouse. Particulars: FIG. 6 Panel A, 12 hours, RNA with DOTAP. As for the experimental part: The following murine cells were isolated and incubated with various RNAs and other known TLR ligands in order to assess species-, cell type-, and signaling pathway-specificity: wild type macrophages in the presence of IFN-γ; MyD88-deficient macrophages in the presence of IFN-γ; J774 (mouse macrophage cell line); and RAW 264.7 (mouse macrophage cell line, e.g., ATCC TIB-71). Murine bone macrophages were generated from wild type or MyD88-deficient C57BL/6 mice by culturing bone marrow cells with 50 ng/ml M-CSF for 5 days. Cells were seeded at 25,000 cells/well and treated with 20 ng/ml IFN-γ for 16 hours. The murine macrophage cell lines RAW and J774 were seeded at 10,000 cells/well.
The following test and control agents were examined: R-848 (2 μg/ml), ODN 1668 (CpG DNA; 5′-[…]-3′; SEQ ID NO:7); LPS (1 μg/ml); poly IC (50 μg/ml); Pam3Cys (5 μg/ml); Ionomycin/TPA; the following RNA molecules, each with (“+Lipo”) and without DOTAP (10 μg/200 μl culture well): GUGUUUAC alone (RNA1); GUAGGCAC alone (RNA2); GUGUUUAC in combination with GUAGGCAC (RNA1/2); […] (RNA6; SEQ ID NO:8); […] (RNA9; SEQ ID NO:9); and the following DNA molecules, corresponding to RNA1, RNA2, and RNA1/2: GTGTTTAC alone (DNA1); GTAGGCAC alone (DNA2); and GTGTTTAC in combination with GTAGGCAC (DNA1/2). These RNA and DNA oligonucleotides each contained a phosphorothioate linkage between the penultimate and 3′ terminal nucleoside. RNA6 and RNA9 each contained in addition a phosphorothioate linkage between the penultimate and 5′ terminal nucleoside. RNA6 corresponds to a ribosomal RNA stem loop derived from Listeria monocytogenes. RNA9 corresponds to a stem loop derived from human immunodeficiency virus (HIV, an RNA retrovirus). The cells were cultured for 12 hours and supernatants were harvested. Murine IL-12 p40, IL-6, and TNF-α were measured by ELISA using matched antibody pairs from BD-Pharmingen according to the manufacturer's protocol.

`CCCCCCCCCCCCCCCC(=O)N[C@@H](CSC[C@@H](COC(=O)CCCCCCCCCCCCCCC)OC(=O)CCCCCCCCCCCCCCC)C(=O)O` [Pam3Cys, reference compound]: in the data set on human PBMC, the “IL-12 p40 response of human PBMC (in words)” value (“IL-12 p40 response” below) was “responsive” and the “effect of DOTAP on the amount of IL-12 p40 secreted” value (“effect of DOTAP” below) was “about the same immunostimultory effect”. The “IL-12 p40 secretion by wild type murine macrophages” value (shortened to “IL-12 p40 secretion”) in data set [1] is recorded as “significant amounts”.

On to poly IC [reference compound], for which, in the data set on human PBMC, the “IL-12 p40 response” value is “responsive” and the “effect of DOTAP” value is “reduced immunostimultory effect”. For the same compound, in data set [1], the “IL-12 p40 secretion” value is on record as “significant amounts”.

In the case of “lipopolysaccharide [LPS, reference compound]”, in the data set on human PBMC, the “IL-12 p40 response” value is “responsive” and the “effect of DOTAP” value was “reduced immunostimultory effect”. In addition, the “IL-12 p40 secretion” value in data set [1] is “significant amounts”.

Consider “5′-TCCATGACGTTCCTGATGCT-3′ (CpG DNA, linkage chemistry not given here, further chemistry not given here) [ODN 1668]”, for which the “IL-12 p40 secretion” value in data set [1] was “significant amounts”.
